Values after ≈ are worked out from the molar mass of the structure shown. Like-named read-outs stand apart in the source and are kept apart here.
Assay: Cyclodextrin-AOL solubility diagrams
Format: physicochemical
Settings: for solubility: 4 °C; for solubility / solubility at 4 h: aqueous with cosolvent or surfactant or cyclodextrin, thermodynamic from solid
Text: A cyclodextrin-AOL solubility diagram would reveal the profile of the solubility curve of the AOL depending on the concentration of the cyclodextrin. The principle of this method is to add an excess of AOL to cyclodextrin solutions of increasing concentration, then to measure the amount of solubilized AOL. This method confirms the solubilization and evaluates more precisely the cyclodextrin solubilizing power, to define a stoichiometry of the complexes (molar and mass ratios) over the entire range of concentrations studied and to estimate the solubility limit and the stability of the mixtures.
The solubilization was carried out with HP-β-CD and SBE-β-CD in a range of concentration ranging from 2.5% to 40% (m/m) at 20° C., 25° C. and 30° C. To check the stability of the solution, a storage test at 4° C. for 48 hours was carried out with the solutions previously prepared at 20° C.
Aqueous solutions of cyclodextrin at in weight (m/m) concentrations of 2.5%, 5%, 10%, 20%, 30% and 40% were prepared in pure water. An excess of AOL was suspended in 2 mL each of these solutions. Each sample is shaken at 20° C., 25° C. or 30° C. for 4 hours (vortex at 1400 rpm). Each sample is centrifuged (12,500 g) and filtered through a 0.45 μm membrane.
The solubility of AOL in each test solution was quantified by HPLC as detailed in Example 2.

[1] = SBE-β-CD 20% (w/w), 20° C. followed by 48 hours at 4° C.
[2] = SBE-β-CD 30% (w/w), 20° C. followed by 48 hours at 4° C.
[3] = SBE-β-CD 40% (w/w), 20° C. followed by 48 hours at 4° C.

CD/AOL weight ratio Rm (SBE-β-CD 20% (w/w), 20° C.): 722 | CD/AOL molar ratio RM [1]: 130 | CD/AOL weight ratio Rm [1]: 1211 | CD/AOL molar ratio RM (SBE-β-CD 20% (w/w), 25° C.): 63 | CD/AOL weight ratio Rm (SBE-β-CD 20% (w/w), 25° C.): 587 | CD/AOL molar ratio RM (SBE-β-CD 20% (w/w), 30° C.): 50 | CD/AOL weight ratio Rm (SBE-β-CD 20% (w/w), 30° C.): 469 | CD/AOL molar ratio RM (SBE-β-CD 30% (w/w), 20° C.): 70 | CD/AOL weight ratio Rm (SBE-β-CD 30% (w/w), 20° C.): 650 | CD/AOL molar ratio RM [2]: 112 | CD/AOL weight ratio Rm [2]: 1049 | CD/AOL molar ratio RM (SBE-β-CD 30% (w/w), 25° C.): 56 | CD/AOL weight ratio Rm (SBE-β-CD 30% (w/w), 25° C.): 522 | CD/AOL molar ratio RM (SBE-β-CD 30% (w/w), 30° C.): 45 | CD/AOL weight ratio Rm (SBE-β-CD 30% (w/w), 30° C.): 417 | CD/AOL molar ratio RM (SBE-β-CD 40% (w/w), 20° C.): 64 | CD/AOL weight ratio Rm (SBE-β-CD 40% (w/w), 20° C.): 600 | CD/AOL molar ratio RM [3]: 94 | CD/AOL weight ratio Rm [3]: 876 | CD/AOL molar ratio RM (SBE-β-CD 40% (w/w), 25° C.): 51 | CD/AOL weight ratio Rm (SBE-β-CD 40% (w/w), 25° C.): 474 | CD/AOL molar ratio RM (SBE-β-CD 40% (w/w), 30° C.): 41 | CD/AOL weight ratio Rm (SBE-β-CD 40% (w/w), 30° C.): 383 | solubility (aqueous HP-β-CD solution, HP-β-CD 2.5% (w/w), 20° C. followed by 48 hours at 4° C.): 0.0116 mg/mL (≈ 48.3 µM) | solubility (aqueous HP-β-CD solution, HP-β-CD 5% (w/w), 20° C. followed by 48 hours at 4° C.): 0.0251 mg/mL (≈ 104 µM) | solubility (aqueous HP-β-CD solution, HP-β-CD 10% (w/w), 20° C. followed by 48 hours at 4° C.): 0.0527 mg/mL (≈ 219 µM) | solubility (aqueous HP-β-CD solution, HP-β-CD 20% (w/w), 20° C. followed by 48 hours at 4° C.): 0.109 mg/mL (≈ 452 µM) | solubility (aqueous HP-β-CD solution, HP-β-CD 30% (w/w), 20° C. followed by 48 hours at 4° C.): 0.187 mg/mL (≈ 777 µM) | solubility (aqueous HP-β-CD solution, HP-β-CD 40% (w/w), 20° C. followed by 48 hours at 4° C.): 0.27 mg/mL (≈ 1120 µM) | solubility at 4 h (aqueous HP-β-CD solution, 20 °C, HP-β-CD 2.5% (w/w), 20° C., read-out: AOL solubility): 0.0134 mg/mL (≈ 55.7 µM) | solubility at 4 h (aqueous HP-β-CD solution, 20 °C, HP-β-CD 5% (w/w), 20° C., read-out: AOL solubility): 0.0273 mg/mL (≈ 114 µM) | solubility at 4 h (aqueous HP-β-CD solution, 30 °C, HP-β-CD 40% (w/w), 30° C., read-out: AOL solubility): 0.644 mg/mL (≈ 2680 µM) | solubility (aqueous SBE-β-CD solution, SBE-β-CD 2.5% (w/w), 20° C. followed by 48 hours at 4° C.): 0.0169 mg/mL (≈ 70.3 µM) | solubility (aqueous SBE-β-CD solution, SBE-β-CD 5% (w/w), 20° C. followed by 48 hours at 4° C.): 0.0346 mg/mL (≈ 144 µM) | solubility (aqueous SBE-β-CD solution, SBE-β-CD 10% (w/w), 20° C. followed by 48 hours at 4° C.): 0.0707 mg/mL (≈ 294 µM) | solubility (aqueous SBE-β-CD solution, SBE-β-CD 20% (w/w), 20° C. followed by 48 hours at 4° C.): 0.165 mg/mL (≈ 687 µM) | solubility (aqueous SBE-β-CD solution, SBE-β-CD 30% (w/w), 20° C. followed by 48 hours at 4° C.): 0.286 mg/mL (≈ 1190 µM) | solubility (aqueous SBE-β-CD solution, SBE-β-CD 40% (w/w), 20° C. followed by 48 hours at 4° C.): 0.457 mg/mL (≈ 1900 µM) | solubility at 4 h (aqueous SBE-β-CD solution, 20 °C, SBE-β-CD 2.5% (w/w), 20° C., read-out: AOL solubility): 0.0293 mg/mL (≈ 122 µM) | solubility at 4 h (aqueous SBE-β-CD solution, 20 °C, SBE-β-CD 5% (w/w), 20° C., read-out: AOL solubility): 0.0597 mg/mL (≈ 248 µM) | solubility at 4 h (aqueous SBE-β-CD solution, 20 °C, SBE-β-CD 10% (w/w), 20° C., read-out: AOL solubility): 0.125 mg/mL (≈ 521 µM) | solubility at 4 h (aqueous SBE-β-CD solution, 20 °C, SBE-β-CD 20% (w/w), 20° C., read-out: AOL solubility): 0.277 mg/mL (≈ 1150 µM) | solubility at 4 h (aqueous SBE-β-CD solution, 20 °C, SBE-β-CD 30% (w/w), 20° C., read-out: AOL solubility): 0.462 mg/mL (≈ 1920 µM) | solubility at 4 h (aqueous SBE-β-CD solution, 20 °C, SBE-β-CD 40% (w/w), 20° C., read-out: AOL solubility): 0.667 mg/mL (≈ 2770 µM) | solubility at 4 h (aqueous SBE-β-CD solution, 25 °C, SBE-β-CD 2.5% (w/w), 25° C., read-out: AOL solubility): 0.0358 mg/mL (≈ 149 µM) | solubility at 4 h (aqueous SBE-β-CD solution, 25 °C, SBE-β-CD 5% (w/w), 25° C., read-out: AOL solubility): 0.0749 mg/mL (≈ 312 µM) | solubility at 4 h (aqueous SBE-β-CD solution, 25 °C, SBE-β-CD 10% (w/w), 25° C., read-out: AOL solubility): 0.157 mg/mL (≈ 651 µM) | solubility at 4 h (aqueous SBE-β-CD solution, 25 °C, SBE-β-CD 20% (w/w), 25° C., read-out: AOL solubility): 0.341 mg/mL (≈ 1420 µM) | solubility at 4 h (aqueous SBE-β-CD solution, 25 °C, SBE-β-CD 30% (w/w), 25° C., read-out: AOL solubility): 0.575 mg/mL (≈ 2390 µM) | solubility at 4 h (aqueous SBE-β-CD solution, 25 °C, SBE-β-CD 40% (w/w), 25° C., read-out: AOL solubility): 0.844 mg/mL (≈ 3510 µM) | solubility at 4 h (aqueous SBE-β-CD solution, 30 °C, SBE-β-CD 2.5% (w/w), 30° C., read-out: AOL solubility): 0.0447 mg/mL (≈ 186 µM) | solubility at 4 h (aqueous SBE-β-CD solution, 30 °C, SBE-β-CD 5% (w/w), 30° C., read-out: AOL solubility): 0.0962 mg/mL (≈ 400 µM) | solubility at 4 h (aqueous SBE-β-CD solution, 30 °C, SBE-β-CD 10% (w/w), 30° C., read-out: AOL solubility): 0.197 mg/mL (≈ 821 µM) | solubility at 4 h (aqueous SBE-β-CD solution, 30 °C, SBE-β-CD 20% (w/w), 30° C., read-out: AOL solubility): 0.427 mg/mL (≈ 1780 µM) | solubility at 4 h (aqueous SBE-β-CD solution, 30 °C, SBE-β-CD 30% (w/w), 30° C., read-out: AOL solubility): 0.72 mg/mL (≈ 3000 µM) | solubility at 4 h (aqueous SBE-β-CD solution, 30 °C, SBE-β-CD 40% (w/w), 30° C., read-out: AOL solubility): 1.04 mg/mL (≈ 4340 µM) | solubility at 4 h (aqueous cyclodextrin solution, 20 °C, HP-β-CD 10% (w/w), 20° C., read-out: AOL solubility): 0.0613 mg/mL (≈ 255 µM) | solubility at 4 h (aqueous cyclodextrin solution, 20 °C, HP-β-CD 20% (w/w), 20° C., read-out: AOL solubility): 0.145 mg/mL (≈ 602 µM) | solubility at 4 h (aqueous cyclodextrin solution, 20 °C, HP-β-CD 30% (w/w), 20° C., read-out: AOL solubility): 0.243 mg/mL (≈ 1010 µM) | solubility at 4 h (aqueous cyclodextrin solution, 20 °C, HP-β-CD 40% (w/w), 20° C., read-out: AOL solubility): 0.344 mg/mL (≈ 1430 µM) | solubility at 4 h (aqueous cyclodextrin solution, 25 °C, HP-β-CD 2.5% (w/w), 25° C., read-out: AOL solubility): 0.0195 mg/mL (≈ 81.1 µM) | solubility at 4 h (aqueous cyclodextrin solution, 25 °C, HP-β-CD 5% (w/w), 25° C., read-out: AOL solubility): 0.0401 mg/mL (≈ 167 µM) | solubility at 4 h (aqueous cyclodextrin solution, 25 °C, HP-β-CD 10% (w/w), 25° C., read-out: AOL solubility): 0.0839 mg/mL (≈ 349 µM) | solubility at 4 h (aqueous cyclodextrin solution, 25 °C, HP-β-CD 20% (w/w), 25° C., read-out: AOL solubility): 0.184 mg/mL (≈ 766 µM) | solubility at 4 h (aqueous cyclodextrin solution, 25 °C, HP-β-CD 30% (w/w), 25° C., read-out: AOL solubility): 0.287 mg/mL (≈ 1200 µM) | solubility at 4 h (aqueous cyclodextrin solution, 25 °C, HP-β-CD 40% (w/w), 25° C., read-out: AOL solubility): 0.417 mg/mL (≈ 1740 µM) | solubility at 4 h (aqueous cyclodextrin solution, 30 °C, 30° C., 40% (w/w) HP-β-CD, read-out: highest solubility reached): 0.65 mg/mL (≈ 2700 µM) | solubility at 4 h (aqueous cyclodextrin solution, 30 °C, 30° C., 40% SBE-β-CD, read-out: solubility): > 1 mg/mL | solubility at 4 h (aqueous cyclodextrin solution, 30 °C, HP-β-CD 2.5% (w/w), 30° C., read-out: AOL solubility): 0.0261 mg/mL (≈ 109 µM) | solubility at 4 h (aqueous cyclodextrin solution, 30 °C, HP-β-CD 5% (w/w), 30° C., read-out: AOL solubility): 0.0514 mg/mL (≈ 214 µM) | solubility at 4 h (aqueous cyclodextrin solution, 30 °C, HP-β-CD 10% (w/w), 30° C., read-out: AOL solubility): 0.114 mg/mL (≈ 476 µM) | solubility at 4 h (aqueous cyclodextrin solution, 30 °C, HP-β-CD 20% (w/w), 30° C., read-out: AOL solubility): 0.255 mg/mL (≈ 1060 µM) | solubility at 4 h (aqueous cyclodextrin solution, 30 °C, HP-β-CD 30% (w/w), 30° C., read-out: AOL solubility): 0.458 mg/mL (≈ 1900 µM)
SMILES: COc1ccc(-c2cc(=S)ss2)cc1 [AOL, 5-(4-methoxyphenyl)-3H-1,2-dithiole-3-thione]
